Experiments:
[1] = molecular target: Serine/threonine-protein kinase PLK2 (Homo sapiens) (UniProt Q9NYY3); assay: Inhibition of human PLK2 using casein as substrate at 1 uM in presence of 32P-ATP by Hotspot assay relative to control; values are per cent of control
[2] = molecular target: T1, cGMP-dependent protein kinase 1 (Homo sapiens) (UniProt Q13976); assay: Inhibition of human PKG1a using LRRASLG as substrate at 1 uM in presence of 32P-ATP by Hotspot assay relative to control; values are per cent of control
T1 sequence (whole entry): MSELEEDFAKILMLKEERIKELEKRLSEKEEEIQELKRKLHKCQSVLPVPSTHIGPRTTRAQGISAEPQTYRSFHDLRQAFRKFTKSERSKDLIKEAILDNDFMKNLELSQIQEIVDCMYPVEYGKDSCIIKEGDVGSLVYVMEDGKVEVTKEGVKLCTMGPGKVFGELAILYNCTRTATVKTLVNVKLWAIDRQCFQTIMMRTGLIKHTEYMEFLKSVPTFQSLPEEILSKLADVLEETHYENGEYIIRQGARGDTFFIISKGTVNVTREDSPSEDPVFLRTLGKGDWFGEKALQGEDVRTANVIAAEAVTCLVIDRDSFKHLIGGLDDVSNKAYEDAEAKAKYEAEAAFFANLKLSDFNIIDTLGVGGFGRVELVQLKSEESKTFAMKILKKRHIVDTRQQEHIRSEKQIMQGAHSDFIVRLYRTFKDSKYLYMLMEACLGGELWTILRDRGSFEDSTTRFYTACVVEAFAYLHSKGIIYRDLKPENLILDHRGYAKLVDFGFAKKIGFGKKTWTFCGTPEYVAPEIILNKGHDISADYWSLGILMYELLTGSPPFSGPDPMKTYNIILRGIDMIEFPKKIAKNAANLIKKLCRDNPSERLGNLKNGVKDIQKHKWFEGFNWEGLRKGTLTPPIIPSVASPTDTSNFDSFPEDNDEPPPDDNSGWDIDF

[3] = molecular target: Casein kinase II subunit alpha (Homo sapiens) (UniProt P68400); assay: Inhibition of human CK2a using RRRDDDSDDD as substrate at 1 uM in presence of 32P-ATP by Hotspot assay relative to control; values are per cent of control
[4] = molecular target: Casein kinase II subunit alpha' (Homo sapiens) (UniProt P19784); assay: Inhibition of human CK2a2 using RRRDDDSDDD as substrate at 1 uM in presence of 32P-ATP by Hotspot assay relative to control; values are per cent of control
[5] = molecular target: Serine/threonine-protein kinase pim-1 (Homo sapiens) (UniProt P11309); assay: Inhibition of human PIM1 using RSRHSSYPAGT as substrate at 1 uM in presence of 32P-ATP by Hotspot assay relative to control; values are per cent of control
[6] = molecular target: Tyrosine-protein kinase HCK (Homo sapiens) (UniProt P08631); assay: Inhibition of human HCK using KVEKIGEGTYGVVYK as substrate at 1 uM in presence of 32P-ATP by Hotspot assay relative to control; values are per cent of control
[7] = molecular target: MAP kinase-activated protein kinase 2 (Homo sapiens) (UniProt P49137); assay: Inhibition of human MAPKAPK2 using KKLNRTLSVA as substrate at 1 uM in presence of 32P-ATP by Hotspot assay relative to control; values are per cent of control
[8] = molecular target: T2, Serine/threonine-protein kinase D3 (Homo sapiens) (UniProt O94806); assay: Inhibition of human PKCnu/PRKD3 using KKLNRTLSVA as substrate at 1 uM in presence of 32P-ATP by Hotspot assay relative to control; values are per cent of control
T2 sequence (whole entry): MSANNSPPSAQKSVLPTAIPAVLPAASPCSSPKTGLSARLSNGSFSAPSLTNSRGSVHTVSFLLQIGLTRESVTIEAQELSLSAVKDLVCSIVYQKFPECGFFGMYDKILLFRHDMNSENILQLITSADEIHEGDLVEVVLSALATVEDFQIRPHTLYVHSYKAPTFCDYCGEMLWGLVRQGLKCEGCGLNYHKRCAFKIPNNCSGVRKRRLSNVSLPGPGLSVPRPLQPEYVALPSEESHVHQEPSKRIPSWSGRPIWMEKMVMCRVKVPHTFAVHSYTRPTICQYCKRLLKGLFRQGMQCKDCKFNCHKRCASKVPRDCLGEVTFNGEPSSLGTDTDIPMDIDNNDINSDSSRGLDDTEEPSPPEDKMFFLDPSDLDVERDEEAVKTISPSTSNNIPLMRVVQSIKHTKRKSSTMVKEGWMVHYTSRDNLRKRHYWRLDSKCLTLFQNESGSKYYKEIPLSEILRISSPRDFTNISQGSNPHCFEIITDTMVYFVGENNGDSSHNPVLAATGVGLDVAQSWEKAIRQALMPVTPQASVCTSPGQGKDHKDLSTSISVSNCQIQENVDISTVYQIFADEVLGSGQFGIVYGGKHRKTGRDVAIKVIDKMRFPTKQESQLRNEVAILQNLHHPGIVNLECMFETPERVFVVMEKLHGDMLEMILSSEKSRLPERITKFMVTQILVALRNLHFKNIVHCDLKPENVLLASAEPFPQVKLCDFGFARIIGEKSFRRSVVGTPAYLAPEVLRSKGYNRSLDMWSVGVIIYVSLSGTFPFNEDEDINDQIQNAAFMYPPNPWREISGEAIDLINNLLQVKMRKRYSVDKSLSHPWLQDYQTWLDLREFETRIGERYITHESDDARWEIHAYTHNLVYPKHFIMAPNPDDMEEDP

[9] = molecular target: Macrophage colony-stimulating factor 1 receptor (Homo sapiens) (UniProt P07333); assay: Inhibition of human FMS using poly[Glu:Tyr] (4:1) as substrate at 1 uM in presence of 32P-ATP by Hotspot assay relative to control; values are per cent of control
[10] = molecular target: Ephrin type-A receptor 5 (Homo sapiens) (UniProt P54756); assay: Inhibition of human EPHA5 using poly[Glu:Tyr] (4:1) as substrate at 1 uM in presence of 32P-ATP by Hotspot assay relative to control; values are per cent of control
[11] = molecular target: Wee1-like protein kinase (Homo sapiens) (UniProt P30291); assay: Inhibition of human WEE1 using CDK1 (D146N)/cyclin B1 as substrate at 1 uM in presence of 32P-ATP by Hotspot assay relative to control; values are per cent of control
Wee1-like protein kinase (Homo sapiens), sequence (P30291 whole entry, looked up): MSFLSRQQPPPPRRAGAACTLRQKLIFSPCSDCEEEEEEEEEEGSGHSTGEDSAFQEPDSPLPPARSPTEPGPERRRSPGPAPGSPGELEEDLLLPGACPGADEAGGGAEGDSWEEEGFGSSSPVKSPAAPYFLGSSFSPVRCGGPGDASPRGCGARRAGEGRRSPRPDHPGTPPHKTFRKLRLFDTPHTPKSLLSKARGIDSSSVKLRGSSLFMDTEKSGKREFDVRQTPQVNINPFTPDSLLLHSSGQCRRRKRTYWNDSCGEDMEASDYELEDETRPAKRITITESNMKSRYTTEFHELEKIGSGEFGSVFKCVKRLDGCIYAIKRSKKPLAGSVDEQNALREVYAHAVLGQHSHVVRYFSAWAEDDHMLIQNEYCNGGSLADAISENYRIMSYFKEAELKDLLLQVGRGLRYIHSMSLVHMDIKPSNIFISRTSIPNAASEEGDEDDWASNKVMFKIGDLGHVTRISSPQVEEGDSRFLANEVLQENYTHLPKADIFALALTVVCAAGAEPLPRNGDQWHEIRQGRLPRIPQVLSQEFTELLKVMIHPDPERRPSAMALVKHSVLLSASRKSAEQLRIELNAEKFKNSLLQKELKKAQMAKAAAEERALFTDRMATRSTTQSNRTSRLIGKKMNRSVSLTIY

Serine/threonine-protein kinase PLK2 (Homo sapiens), sequence (Q9NYY3 whole entry, looked up): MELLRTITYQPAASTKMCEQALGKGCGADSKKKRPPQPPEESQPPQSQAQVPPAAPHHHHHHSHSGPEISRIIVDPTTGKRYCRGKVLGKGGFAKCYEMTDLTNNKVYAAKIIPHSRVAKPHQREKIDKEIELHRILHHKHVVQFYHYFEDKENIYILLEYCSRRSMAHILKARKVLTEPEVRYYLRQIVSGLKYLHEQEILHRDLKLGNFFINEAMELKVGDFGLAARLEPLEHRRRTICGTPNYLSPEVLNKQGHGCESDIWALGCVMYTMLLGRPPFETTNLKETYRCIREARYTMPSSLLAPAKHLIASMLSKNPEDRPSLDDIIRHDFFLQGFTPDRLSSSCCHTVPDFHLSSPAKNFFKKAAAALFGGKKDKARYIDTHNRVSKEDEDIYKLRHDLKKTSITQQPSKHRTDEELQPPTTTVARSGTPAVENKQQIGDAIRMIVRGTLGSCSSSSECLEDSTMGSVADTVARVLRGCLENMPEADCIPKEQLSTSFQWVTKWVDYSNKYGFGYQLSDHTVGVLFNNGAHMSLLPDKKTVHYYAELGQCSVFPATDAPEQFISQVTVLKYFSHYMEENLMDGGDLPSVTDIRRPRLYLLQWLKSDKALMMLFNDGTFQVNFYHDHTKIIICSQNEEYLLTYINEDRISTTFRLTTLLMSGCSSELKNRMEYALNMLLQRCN
MAP kinase-activated protein kinase 2 (Homo sapiens), sequence (P49137 whole entry, looked up): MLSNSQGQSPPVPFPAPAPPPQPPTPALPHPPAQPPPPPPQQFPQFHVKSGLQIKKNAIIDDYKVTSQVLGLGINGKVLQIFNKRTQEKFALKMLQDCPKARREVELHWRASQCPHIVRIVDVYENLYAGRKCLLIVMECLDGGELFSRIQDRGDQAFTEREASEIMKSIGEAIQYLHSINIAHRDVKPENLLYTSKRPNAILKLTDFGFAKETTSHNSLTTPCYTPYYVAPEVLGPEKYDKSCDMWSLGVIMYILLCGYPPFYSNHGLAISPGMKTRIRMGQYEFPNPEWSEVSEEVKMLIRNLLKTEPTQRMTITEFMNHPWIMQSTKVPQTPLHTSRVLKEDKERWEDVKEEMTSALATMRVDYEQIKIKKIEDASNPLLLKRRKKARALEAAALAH
Serine/threonine-protein kinase pim-1 (Homo sapiens), sequence (P11309 whole entry, looked up): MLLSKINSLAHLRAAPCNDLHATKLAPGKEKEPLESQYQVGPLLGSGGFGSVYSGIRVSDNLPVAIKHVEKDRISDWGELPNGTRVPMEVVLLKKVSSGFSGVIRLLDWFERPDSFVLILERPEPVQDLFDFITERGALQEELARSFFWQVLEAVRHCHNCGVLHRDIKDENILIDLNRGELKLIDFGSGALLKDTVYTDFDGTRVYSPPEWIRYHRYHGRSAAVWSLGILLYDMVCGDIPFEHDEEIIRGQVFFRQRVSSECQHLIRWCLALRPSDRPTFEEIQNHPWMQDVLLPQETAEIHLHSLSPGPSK
Casein kinase II subunit alpha (Homo sapiens), sequence (P68400 whole entry, looked up): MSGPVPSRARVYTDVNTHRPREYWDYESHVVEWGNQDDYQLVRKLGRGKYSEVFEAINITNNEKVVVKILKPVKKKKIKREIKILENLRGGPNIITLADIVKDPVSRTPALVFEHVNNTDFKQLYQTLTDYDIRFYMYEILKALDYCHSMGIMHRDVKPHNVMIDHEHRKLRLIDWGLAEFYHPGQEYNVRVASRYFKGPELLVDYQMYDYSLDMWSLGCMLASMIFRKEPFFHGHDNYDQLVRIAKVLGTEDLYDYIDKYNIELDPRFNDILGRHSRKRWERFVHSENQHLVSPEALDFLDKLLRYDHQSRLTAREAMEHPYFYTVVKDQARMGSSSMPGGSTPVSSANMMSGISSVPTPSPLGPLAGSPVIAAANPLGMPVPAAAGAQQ
Macrophage colony-stimulating factor 1 receptor (Homo sapiens), sequence (P07333 whole entry): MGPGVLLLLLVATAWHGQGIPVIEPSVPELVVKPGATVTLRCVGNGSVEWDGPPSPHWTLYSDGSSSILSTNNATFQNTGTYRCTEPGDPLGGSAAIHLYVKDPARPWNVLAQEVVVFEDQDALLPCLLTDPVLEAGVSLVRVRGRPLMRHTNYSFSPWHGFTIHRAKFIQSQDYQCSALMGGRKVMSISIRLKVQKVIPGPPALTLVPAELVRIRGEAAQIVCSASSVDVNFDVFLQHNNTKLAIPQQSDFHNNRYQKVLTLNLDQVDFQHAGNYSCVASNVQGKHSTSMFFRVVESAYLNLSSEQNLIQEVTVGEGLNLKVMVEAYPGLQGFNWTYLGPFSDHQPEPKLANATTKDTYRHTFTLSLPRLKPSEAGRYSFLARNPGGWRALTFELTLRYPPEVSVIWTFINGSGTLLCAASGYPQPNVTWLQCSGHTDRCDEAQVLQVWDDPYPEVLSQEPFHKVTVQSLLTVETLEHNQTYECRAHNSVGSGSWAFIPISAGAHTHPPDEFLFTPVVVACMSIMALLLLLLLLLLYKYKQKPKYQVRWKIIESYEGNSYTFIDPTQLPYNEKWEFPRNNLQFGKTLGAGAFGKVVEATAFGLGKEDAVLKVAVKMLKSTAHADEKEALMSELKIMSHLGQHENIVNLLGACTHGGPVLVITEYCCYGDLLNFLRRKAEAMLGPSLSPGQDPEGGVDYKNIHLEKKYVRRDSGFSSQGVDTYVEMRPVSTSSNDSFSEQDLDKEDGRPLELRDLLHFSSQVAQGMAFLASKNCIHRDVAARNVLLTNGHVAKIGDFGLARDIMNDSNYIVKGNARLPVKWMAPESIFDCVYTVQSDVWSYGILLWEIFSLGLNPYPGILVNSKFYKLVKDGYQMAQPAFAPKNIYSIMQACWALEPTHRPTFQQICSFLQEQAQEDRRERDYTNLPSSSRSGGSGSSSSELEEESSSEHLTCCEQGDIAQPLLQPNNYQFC
Casein kinase II subunit alpha' (Homo sapiens), sequence (P19784 whole entry, looked up): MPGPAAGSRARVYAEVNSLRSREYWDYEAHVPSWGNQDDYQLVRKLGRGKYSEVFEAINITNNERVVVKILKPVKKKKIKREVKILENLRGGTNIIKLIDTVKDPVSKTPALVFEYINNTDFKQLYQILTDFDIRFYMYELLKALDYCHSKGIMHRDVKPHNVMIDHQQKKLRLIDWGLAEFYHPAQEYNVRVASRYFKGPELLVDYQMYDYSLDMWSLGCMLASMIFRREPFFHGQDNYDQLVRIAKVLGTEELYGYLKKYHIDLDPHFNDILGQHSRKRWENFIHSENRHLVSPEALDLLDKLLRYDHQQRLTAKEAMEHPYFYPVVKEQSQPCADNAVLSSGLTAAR
Ephrin type-A receptor 5 (Homo sapiens), sequence (P54756 whole entry): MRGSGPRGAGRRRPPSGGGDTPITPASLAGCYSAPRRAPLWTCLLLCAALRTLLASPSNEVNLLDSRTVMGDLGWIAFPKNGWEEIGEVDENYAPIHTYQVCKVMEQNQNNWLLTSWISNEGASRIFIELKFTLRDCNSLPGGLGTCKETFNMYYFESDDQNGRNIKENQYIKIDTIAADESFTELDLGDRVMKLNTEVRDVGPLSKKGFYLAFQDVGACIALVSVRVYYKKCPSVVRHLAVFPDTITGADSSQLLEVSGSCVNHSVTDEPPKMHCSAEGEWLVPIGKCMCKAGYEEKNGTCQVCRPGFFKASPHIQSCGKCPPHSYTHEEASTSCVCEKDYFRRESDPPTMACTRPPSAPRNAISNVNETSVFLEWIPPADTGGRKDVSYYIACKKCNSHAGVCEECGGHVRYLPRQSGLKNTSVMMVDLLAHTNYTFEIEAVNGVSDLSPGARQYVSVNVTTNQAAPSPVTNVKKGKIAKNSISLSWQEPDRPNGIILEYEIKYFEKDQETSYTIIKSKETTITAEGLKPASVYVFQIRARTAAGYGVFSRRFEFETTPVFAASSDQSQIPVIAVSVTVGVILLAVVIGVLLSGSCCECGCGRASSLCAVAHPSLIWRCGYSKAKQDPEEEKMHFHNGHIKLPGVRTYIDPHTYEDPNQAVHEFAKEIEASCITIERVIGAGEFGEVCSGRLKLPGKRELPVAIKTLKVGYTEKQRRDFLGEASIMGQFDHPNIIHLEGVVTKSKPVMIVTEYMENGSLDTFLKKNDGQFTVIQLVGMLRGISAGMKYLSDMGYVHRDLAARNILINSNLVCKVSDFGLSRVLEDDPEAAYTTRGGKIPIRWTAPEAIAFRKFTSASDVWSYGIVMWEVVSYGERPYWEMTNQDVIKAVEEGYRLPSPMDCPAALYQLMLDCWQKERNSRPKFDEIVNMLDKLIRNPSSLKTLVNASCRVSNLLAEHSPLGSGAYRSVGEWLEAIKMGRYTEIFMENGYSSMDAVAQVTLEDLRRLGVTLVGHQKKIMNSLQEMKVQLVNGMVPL

| SMILES | residual activity [1] | residual activity [2] | residual activity [3] | residual activity [4] | residual activity [5] | residual activity [6] | residual activity [7] | residual activity [8] | residual activity [9] | residual activity [10] | residual activity [11] |
| --- | --- | --- | --- | --- | --- | --- | --- | --- | --- | --- | --- |
| CNC(=O)c1ccc2c(c1)ncn2-c1ccc(CC(=O)OC(C)(C)C)cc1 | 99.1% | 90.1% | 75.6% | 96.3% | 98.5% | 76.1% | 100% | 101% | 91.8% | 96.7% | 108% |
| Cc1cc(-c2cnc(N)c3c(-c4ccc5scnc5c4)csc23)n(C)n1 | 106% | 69.9% | 54.7% | 88.9% | 98.4% | 41% | 89.1% | 33.4% | 19.4% | 53.4% | 72.9% |
| CC(C)S(=O)(=O)c1ccc2nccc(Nc3ccc4scnc4c3)c2c1 | 94.7% | 90.4% | 92.4% | 97.1% | 96.4% | 23.1% | 103% | 95.4% | 108% | 70.6% | 106% |
